In ChEMBL document CHEMBL1145025, “Structure-activity relationship of (1-aryl-2-piperazinylethyl)piperazines: antagonists for the AGRP/melanocortin receptor binding” (J Med Chem, 2003):
Activity calls are given as the source filed them.

Assays:
Melanocortin receptor 4 [1] = target: T1, Melanocortin receptor 4 (Homo sapiens, UniProt P32245); assay: In vitro ability to inhibit the binding of alpha [125I]NDP-MSH to the human Melanocortin 4 receptor
Melanocortin receptor 4 [2] = target: T1, Melanocortin receptor 4; assay: Fold selectivity for AGRP vs NDP-MSH binding was reported
Melanocortin receptor 4 [3] = target: T1, Melanocortin receptor 4; assay: In vitro ability to inhibit the binding of [125I]AGRP to the human Melanocortin 4 receptor
[4] = Fold selectivity for AGRP vs NDP-MSH binding to human MC4R was reported; Minimal activity
[5] = Fold selectivity for AGRP vs NDP-MSH binding was reported; Minimal Activity.

T1 sequence (P32245 whole entry): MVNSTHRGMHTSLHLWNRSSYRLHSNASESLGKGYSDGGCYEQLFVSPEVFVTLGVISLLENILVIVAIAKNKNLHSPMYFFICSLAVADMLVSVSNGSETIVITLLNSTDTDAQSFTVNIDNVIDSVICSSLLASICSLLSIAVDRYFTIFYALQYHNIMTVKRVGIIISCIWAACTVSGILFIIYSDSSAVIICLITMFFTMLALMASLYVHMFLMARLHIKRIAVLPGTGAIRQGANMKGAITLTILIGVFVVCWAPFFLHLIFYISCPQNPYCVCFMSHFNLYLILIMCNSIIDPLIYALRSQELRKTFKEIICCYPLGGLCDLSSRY

SMILES	IC50 (Melanocortin receptor 4 [1])	Selectivity (Melanocortin receptor 4 [2])	IC50 (Melanocortin receptor 4 [3])	Selectivity [4]	Selectivity [5]
CC(CN1CCN(CC(c2ccc(F)cc2)N2CCN(c3ccccc3)CC2)CC1)C(=O)c1ccccc1 (configuration not stated)	249 nM	0.1	2860 nM	–	–
CC(CN1CCN(CC(c2ccc(Cl)cc2)N2CCN(C)CC2)CC1)C(=O)c1ccc(Cl)cc1 (configuration not stated)	150 nM	0.8	118 nM	–	–
CC(CN1CCN(CC(c2ccc(F)cc2)N2CCN(C)CC2)CC1)C(=O)c1ccc(Cl)cc1 (configuration not stated)	178 nM	0.7	266 nM	–	–
CC(CN1CCN(CC(c2cccc(Cl)c2)N2CCN(C)CC2)CC1)C(=O)c1ccccc1 (configuration not stated)	598 nM	1.8	336 nM	–	–
CC(CN1CCN(CC(c2ccc(F)cc2)N2CCN(C3CCCCC3)CC2)CC1)C(=O)c1ccccc1 (configuration not stated)	164 nM	1	152 nM	–	–
CC(CN1CCN(CC(c2ccccc2)N2CCN(C)CC2)CC1)C(=O)c1ccccc1 (configuration not stated)	> 10000 nM	–	> 5000 nM	Partially active	–
CN1CCN(C(CN2CCN(CCCc3ccccc3)CC2)c2ccc(F)cc2)CC1 (configuration not stated)	3830 nM	–	> 10000 nM	–	Partially active
COc1ccc(C(=O)C(C)CN2CCN(CC(c3ccc(F)cc3)N3CCN(C)CC3)CC2)cc1 (configuration not stated)	597 nM	0.3	2150 nM	–	–
CC(CN1CCN(CC(c2ccc(F)cc2)N2CCN(C)CC2)CC1)C(=O)c1ccc(C(F)(F)F)cc1 (configuration not stated)	469 nM	0.5	820 nM	–	–
CC(CN1CCN(CC(c2ccc(F)cc2)N2CCN(C)CC2)CC1)C(=O)c1ccc(Cl)c(Cl)c1 (configuration not stated)	188 nM	0.5	364 nM	–	–
CCN1CCN(C(CN2CCN(CC(C)C(=O)c3ccccc3)CC2)c2ccc(F)cc2)CC1 (configuration not stated)	193 nM	1.6	321 nM	–	–
CC(CN1CCN(CC(c2ccc(F)cc2)N2CCN(C)CC2)CC1)C(=O)c1ccc([N+](=O)[O-])cc1 (configuration not stated)	1500 nM	2.5	588 nM	–	–
CN1CCN(C(CN2CCN(CC3CCc4ccccc4C3=O)CC2)c2ccc(Cl)cc2)CC1 (configuration not stated)	3230 nM	–	> 10000 nM	–	Partially active
CN1CCN(C(CN2CCN(CCC(=O)c3ccccc3)CC2)c2ccc(F)cc2)CC1 (configuration not stated)	> 10000 nM	–	> 10000 nM	–	Partially active
